The test system of one assay is COLO205. The assay is described as follows: Flow cytometry surface binding of phage clones. Also noted: species or system human. On the procedure:
(§1) Cells were grown to 70-80% confluence and were harvested with 10 mM EDTA in PBS. Peripheral blood mononuclear cells were prepared by using Ficoll-Paque Plus density gradient separation. After washing and suspending the cells with FACS buffer (PBS containing 1% fetal bovine serum), the cells were incubated for 1 hr at 4° C. with 5×10^9, 1×10^9 cfu individual phage clones or control phage, respectively. After washing twice with FACS buffer, cells were incubated with mouse anti-M13 monoclonal antibody (GE Healthcare) at 1:2000 dilution for 1 hr followed by 30 min with phycoerythrin (PE)-conjugated goat anti-mouse secondary antibody (Jackson ImmunoResearch) at 1:250 dilution at 4° C. The emission fluorescence signals were measured using FACSCantoll (Becton Dickinson) and were analyzed by FlowJo software.
(In flow cytometry, cells or beads pass a laser one at a time.)

In a further assay the test system is HCT116 cells. The assay is described as follows: Flow cytometry surface binding of phage clones. On the set-up: species or system human. On the procedure: as §1
A further assay relates to HT29. The assay is described as follows: Flow cytometry surface binding of phage clones. On the set-up: species or system human. On the procedure: as §1
A further assay deals with LS174T. The assay is described as follows: Flow cytometry surface binding of phage clones. Also noted: species or system human. On the procedure:
as §1

Another assay concerns SW620. The assay is described as follows: Flow cytometry surface binding of phage clones. Also noted: species or system human. How it is done:
as §1

For assay [1], the system named is peripheral blood mononuclear cells (PBMC). The assay is described as follows: Flow cytometry binding of phage clones to normal cells. Particulars: human PBMC. On the procedure: as §1
The subject of another assay is 1112SK. The assay is described as follows: Cellular ELISA of phage clones. In kind it is binding, human. On the procedure:
(§2) The selected phages were further identified by ELISA screening. 1×10^4 cells were seeded into each well of 96-well ELISA plates (Falcon, Calif., USA) overnight and were fixed with 2% paraformaldehyde or methanol/acetone (1:1) for 10 min at RT. The plates were washed twice with PBS and were blocked with 1% BSA in PBS (w/v) for 30 min at RT. Then individual phage clones were added and incubated for 1 hr at RT. Following washing three times with PBS, the plates were incubated with horseradish peroxidase (HRP)-conjugated mouse anti-M13 phage antibody (GE Healthcare) at 1:2000 dilution for 1 hr at RT. The plates were washed three times with PBS again, and were subsequently incubated with the peroxidase substrate o-phenylenediamine dihydrochloride (OPD; Sigma) plus H2O2. The reaction was terminated by 3 N HCl, and the absorbance was measured using microplate reader (Model 680, BioRad) at 490 nm. To evaluate the binding activities of the three selected phage clones to various human cancer cell lines, cellular ELISA was performed to detect sixteen types of human cancer cell lines, including A498, HTB-10, B16-F10, SKOV3, PC-3, U2OS, 1112SK, […], SAS, H460, MIA Paca-2, HCT116, HUVAC, CL1-5, Mahlavu, and MDA-MB-231.
On the technique in general: In an ELISA, binding on a coated surface is turned into a signal by an enzyme label.

For a further assay, the system named is A498. The assay is described as follows: Cellular ELISA of phage clones. The class given is binding, human. How it is done: as §2
For the next assay, the system named is CL1-5. The assay is described as follows: Cellular ELISA of phage clones. In kind it is binding, human. On the procedure:
as §2

The subject of the next assay is H184. The assay is described as follows: Cellular ELISA of phage clones. In kind it is binding, human. On the procedure: as §2
The next assay has as its system H460. The assay is described as follows: Cellular ELISA of phage clones. The class given is binding, human. How it is done: as §2
The test system of another assay is HTB-10. The assay is described as follows: Cellular ELISA of phage clones. The class given is binding, human. On the procedure:
as §2

For another assay, the system named is HUVAC. The assay is described as follows: Cellular ELISA of phage clones. The class given is binding, human. On the procedure: as §2
The next assay relates to Mahlavu. The assay is described as follows: Cellular ELISA of phage clones. In kind it is binding, human. On the procedure:
as §2

A further assay has as its system PC-3. The assay is described as follows: Cellular ELISA of phage clones. In kind it is binding, human. On the procedure:
as §2

For the next assay, the system named is SAS. The assay is described as follows: Cellular ELISA of phage clones. The class given is binding, human. How it is done:
as §2

The test system of a further assay is SKOV3. The assay is described as follows: Cellular ELISA of phage clones. The class given is binding, human. How it is done:
as §2

A further assay relates to U2OS. The assay is described as follows: Cellular ELISA of phage clones. In kind it is binding, human. On the procedure: as §2
In the next assay the test system is B16-F10. The assay is described as follows: Cellular ELISA of phage clones. In kind it is binding, mouse. How it is done:
as §2

On to SSMDIVLRAPLM [HCT74], for which the “binding activity by FACS” value in the assay on COLO205 is recorded as “weak affinity”; with HT29, “high binding affinity”; in the assay with LS174T it was “moderate affinity”; in the assay on SW620, “high binding affinity”. The “cell surface-binding activity by flow cytometry” value in the assay on HCT116 cells is given as “high binding affinity”. For the same sequence, in assay [1], the “binding activity to PBMC (normal cells) by FACS” value was “not to normal cells”. In addition, the “binding by cellular ELISA” value in the assay with 1112SK is reported as “highly specific binding”; in the assay with A498, “highly specific binding”; in the assay on CL1-5 it was “moderate binding”; in the assay with H184 it was “highly specific binding”; in the assay on H460, “highly specific binding”; in the assay with HTB-10, “moderate binding”. In addition, the “binding by cellular ELISA” value in the assay on HUVAC, in the assay on Mahlavu, in the assay with PC-3, in the assay on SAS, in the assay on SKOV3 and with U2OS was “highly specific binding” throughout. Further, the “binding by cellular ELISA” value in the assay on B16-F10 is given as “highly specific binding”.

The values above are taken from patent publication US9393316B2, “Cancer targeting peptides for enhancing anti-cancer drug delivery and therapeutic efficiencies” (priority 2014, dated 2016).
